In one test the target is AR / CBP ternary complex (Homo sapiens, UniProt P10275+Q92793). Briefly: Ternary complex formation assay (sandwich ELISA, AR capture, CBP antibody detection) in VCaP cell lysates. The test is classed as cell-based. The following applies: treated 1.5 hours, rabbit CBP or p300 antibody detection, average, read-out: Average Ternary Complex. How it is done: Black MaxiSorp plates: coat with 50 μL of mouse 1/50 diluted AR antibody (Monoclonal Antibody (AR 441 from Thermo Fisher); diluted in phosphate buffered saline (PBS). Spin the liquid to the bottom of the wells, if necessary. Incubate overnight at 4° C. Next day, wash 3 times with 200 μL of TBST. Block with 200 μL of blocking buffer (5% BSA in TBST) at room temperature for 2 hours (BSA: A4503 or A2153 from Sigma). Wash plates 3 times with TBST. Plates are ready for lysates Preparation of dimerizer treated lysates
AR / CBP ternary complex, sequence (P10275 whole entry): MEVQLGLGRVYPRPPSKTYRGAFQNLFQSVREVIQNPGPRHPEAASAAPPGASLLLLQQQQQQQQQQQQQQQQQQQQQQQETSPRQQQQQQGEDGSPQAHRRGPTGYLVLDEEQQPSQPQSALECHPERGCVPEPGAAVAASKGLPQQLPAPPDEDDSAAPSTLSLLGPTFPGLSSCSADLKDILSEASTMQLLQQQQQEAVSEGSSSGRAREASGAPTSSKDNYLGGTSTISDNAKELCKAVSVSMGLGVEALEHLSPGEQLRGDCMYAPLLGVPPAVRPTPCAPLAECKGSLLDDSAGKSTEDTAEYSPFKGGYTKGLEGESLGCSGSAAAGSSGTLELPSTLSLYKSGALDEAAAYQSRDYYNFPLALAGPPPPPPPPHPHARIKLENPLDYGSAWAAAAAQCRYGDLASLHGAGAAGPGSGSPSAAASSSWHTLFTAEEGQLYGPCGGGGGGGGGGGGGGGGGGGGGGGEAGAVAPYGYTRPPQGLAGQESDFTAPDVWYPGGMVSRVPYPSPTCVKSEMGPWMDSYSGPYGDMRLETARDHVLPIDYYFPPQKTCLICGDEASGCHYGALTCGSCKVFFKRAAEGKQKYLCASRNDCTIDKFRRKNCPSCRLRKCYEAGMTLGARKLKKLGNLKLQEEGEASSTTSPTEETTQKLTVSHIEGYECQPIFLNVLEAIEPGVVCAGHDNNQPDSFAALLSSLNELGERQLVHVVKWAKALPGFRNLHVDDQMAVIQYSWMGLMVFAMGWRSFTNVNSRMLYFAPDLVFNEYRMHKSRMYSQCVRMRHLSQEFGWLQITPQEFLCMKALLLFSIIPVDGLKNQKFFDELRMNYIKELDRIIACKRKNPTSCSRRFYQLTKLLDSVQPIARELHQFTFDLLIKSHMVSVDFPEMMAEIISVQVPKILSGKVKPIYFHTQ
AR / CBP ternary complex, sequence (Q92793 2-2442): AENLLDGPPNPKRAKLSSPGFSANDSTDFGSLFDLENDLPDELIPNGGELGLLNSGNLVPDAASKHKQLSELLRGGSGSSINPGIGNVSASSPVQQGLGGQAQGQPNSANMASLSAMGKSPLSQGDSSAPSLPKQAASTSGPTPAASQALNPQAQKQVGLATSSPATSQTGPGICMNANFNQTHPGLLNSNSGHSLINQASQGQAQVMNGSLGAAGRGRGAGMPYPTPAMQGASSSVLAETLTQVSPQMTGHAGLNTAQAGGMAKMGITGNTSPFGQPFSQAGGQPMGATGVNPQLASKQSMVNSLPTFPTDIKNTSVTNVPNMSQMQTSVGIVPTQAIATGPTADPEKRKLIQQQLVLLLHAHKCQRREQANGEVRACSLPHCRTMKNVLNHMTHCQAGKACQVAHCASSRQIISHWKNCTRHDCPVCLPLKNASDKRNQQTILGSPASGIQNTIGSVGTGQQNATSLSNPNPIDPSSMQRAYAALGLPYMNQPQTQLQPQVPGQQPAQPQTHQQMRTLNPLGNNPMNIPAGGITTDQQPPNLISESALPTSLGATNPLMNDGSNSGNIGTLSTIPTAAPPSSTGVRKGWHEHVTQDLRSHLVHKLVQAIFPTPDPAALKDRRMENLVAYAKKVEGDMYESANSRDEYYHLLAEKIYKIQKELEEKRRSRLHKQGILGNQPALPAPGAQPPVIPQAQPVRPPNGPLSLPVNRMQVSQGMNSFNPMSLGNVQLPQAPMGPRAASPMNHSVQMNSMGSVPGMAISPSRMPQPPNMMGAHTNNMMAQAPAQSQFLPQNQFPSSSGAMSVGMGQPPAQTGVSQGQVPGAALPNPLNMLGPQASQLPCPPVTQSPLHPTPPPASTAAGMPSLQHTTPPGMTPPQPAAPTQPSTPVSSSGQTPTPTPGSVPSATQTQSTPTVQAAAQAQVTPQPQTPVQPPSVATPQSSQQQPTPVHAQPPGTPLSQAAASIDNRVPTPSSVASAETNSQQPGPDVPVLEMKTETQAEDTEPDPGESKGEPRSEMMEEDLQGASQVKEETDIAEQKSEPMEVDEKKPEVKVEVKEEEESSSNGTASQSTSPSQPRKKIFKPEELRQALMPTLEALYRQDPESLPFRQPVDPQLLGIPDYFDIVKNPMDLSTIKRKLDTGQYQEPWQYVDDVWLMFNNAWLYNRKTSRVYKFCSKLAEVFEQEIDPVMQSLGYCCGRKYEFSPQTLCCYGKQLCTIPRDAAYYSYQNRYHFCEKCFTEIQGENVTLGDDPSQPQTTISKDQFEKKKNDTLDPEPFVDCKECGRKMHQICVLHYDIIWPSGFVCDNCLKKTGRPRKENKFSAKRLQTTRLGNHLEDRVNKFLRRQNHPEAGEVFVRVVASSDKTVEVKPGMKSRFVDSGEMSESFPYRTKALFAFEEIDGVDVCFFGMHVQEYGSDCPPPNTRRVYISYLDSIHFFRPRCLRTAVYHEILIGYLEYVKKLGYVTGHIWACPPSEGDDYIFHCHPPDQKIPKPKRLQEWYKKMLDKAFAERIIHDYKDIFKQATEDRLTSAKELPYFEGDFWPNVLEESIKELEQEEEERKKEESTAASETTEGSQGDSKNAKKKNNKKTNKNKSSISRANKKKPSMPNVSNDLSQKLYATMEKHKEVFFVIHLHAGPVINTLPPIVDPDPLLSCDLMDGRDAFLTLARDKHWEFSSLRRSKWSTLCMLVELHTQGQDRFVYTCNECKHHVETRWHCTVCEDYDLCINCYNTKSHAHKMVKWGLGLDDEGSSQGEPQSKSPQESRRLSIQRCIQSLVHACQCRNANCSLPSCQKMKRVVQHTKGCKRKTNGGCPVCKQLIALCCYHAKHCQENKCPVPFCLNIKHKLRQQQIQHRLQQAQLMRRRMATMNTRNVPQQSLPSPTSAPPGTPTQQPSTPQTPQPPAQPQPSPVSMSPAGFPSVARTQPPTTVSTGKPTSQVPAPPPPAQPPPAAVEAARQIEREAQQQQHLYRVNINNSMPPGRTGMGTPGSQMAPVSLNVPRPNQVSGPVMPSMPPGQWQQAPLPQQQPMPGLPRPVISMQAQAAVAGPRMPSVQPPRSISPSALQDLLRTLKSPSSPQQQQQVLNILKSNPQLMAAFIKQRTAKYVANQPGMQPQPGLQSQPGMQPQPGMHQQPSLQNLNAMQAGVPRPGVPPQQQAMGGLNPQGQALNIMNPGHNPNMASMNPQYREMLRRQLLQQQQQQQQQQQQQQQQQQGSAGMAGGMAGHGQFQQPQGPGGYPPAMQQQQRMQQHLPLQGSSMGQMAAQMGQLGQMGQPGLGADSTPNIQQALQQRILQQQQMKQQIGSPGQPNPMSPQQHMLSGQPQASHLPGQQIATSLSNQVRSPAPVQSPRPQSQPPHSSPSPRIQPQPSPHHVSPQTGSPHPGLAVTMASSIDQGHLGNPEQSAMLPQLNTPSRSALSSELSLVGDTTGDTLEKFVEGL
Culture cells in 96 wells at 50K VCaP cells/well for at least 3 days. Plate in 5% Omega charcoal stripped FBS in total volume of 200 uL. Treat with bifunctional for 1.5 hours by adding 1 μL of 200× stock in DMSO. Aspirate media/compound. Add and pipet-to-mix 70 μL of 1× AlphaLisa Lysis Buffer to each well (Perkin Elmer, AlphaLISA SureFire Ultra, diluted in water). Pipet up and down when adding lysis buffer to disrupt cells. Let lysis proceed for 30 min at 4° C.
Incubate for 1 hour at room temperature. Flick out the lysates. Wash 3 times with TBST. Add 75 μL of rabbit CBP or p300 antibody to each well (diluted 1:5000 in blocking buffer (5% BSA in TBST). CBP antibody: (D6C5) Rabbit mAb #7389; p300 antibody: (D8Z4E) Rabbit mAb #86377. Incubate overnight at 4° C. Wash 3 times with 300 uL TBST, each time on shaker for 5-10 min. Prepare goat anti-rabbit antibody conjugated to HRP (1/100K dilution in blocking buffer) Invitrogen Catalog number: 32260. Add 75 μL of HRP-conjugated goat anti-rabbit antibody. Incubate at room temperature for 1 hour. Flick out the HRP-antibody mixture. Wash 7-8 times with TBST, each time on shaker for 10 min. Later washes try to overflow the wells so that no residual HRP remains bound to the sides of the well. Prepare and add 75 uL/well of QuantaRed Enhance Chemifluorescent HRP Substrate solution. Immediately read fluorescence on BMG ClarioStar (ex: 570/em 585), and repeat the read in 5 minutes and 15 minutes.
Background: ELISA stands for enzyme-linked immunosorbent assay.

The test system of the next test is VCaP cells. Briefly: VCaP growth inhibition assay (CTG). The test is classed as cell-based. The following applies: Homo sapiens, 216 h, 30 pM R1881, 9 days. The method, then:
VCaP cells (ATCC Cat #CRL-2876) are plated at 1×10^4 cells per well of a white plastic 96-well cluster plate (Thermo Scientific Nunc Cat #165306) in 100 uL phenol red-free DMEM (Gibco Cat #21063-029) media with 5% CSS (Omega Scientific Cat #FB-04). Cluster plates are returned to the incubator (37*C/5% CO2) for 72 hours prior to treatment. Just prior to treatment, 100 uL of phenol red-free DMEM/5% CSS and 60 pM R1881 (Sigma Cat #R0908-10 mg) was added to each well of the cluster plates (Final R1881 concentration=30 pM). Compounds (200X) were added to each well in a volume of 1 uL, with serial dilutions (1:5) from 20 uM to 2 pM (final concentrations in well are 100 nM to 10 fM). Cluster plates are returned to the incubator for 9 days.
After the 9-day treatment period, media was removed from the cluster plates by inversion and 100 uL room temperature CTG reagent (Promega Cat #G7573) is added to each well. The cluster plates are placed on a shaker and incubated at room temperature for 20 minutes. Following this shaking/incubation, cluster plates are read on a luminometer (BMG ClarioStar). IC50 values are obtained by graphing the RLU data vs. compound concentration with nonlinear regression 4-parameter logistic curves (GraphPad Prism).

Molecules are shown by their SMILES.

As a reminder, the IC50 is the concentration that gives 50% inhibition. The low end stands for higher potency, the high end for lower potency. `CC(=O)N1CCc2c(c(N3CCCc4cc(-c5cnn(C)c5)c(C(F)F)cc43)nn2C2CCN(C3CC(C#Cc4ccc(C(=O)N[C@H]5CC[C@H](Oc6ccc(C#N)c(Cl)c6)CC5)nn4)C3)CC2)C1` (some centres unmarked) [Compound 195, 6-[2-[3-[4-[5-acetyl-3-[7-(difluoromethyl)-6-(1-methylpyrazol-4-yl)-3,4-dihydro-2H-quinolin-1-yl]-6,7-dihydro-4H-pyrazolo[4,3-c]pyridin-1-yl]-1-piperidyl]cyclobutyl]ethynyl]-N-[4-(3-chloro-4-cyano-phenoxy)cyclohexyl]pyridazine-3-carboxamide]: at AR / CBP ternary complex, the EC50 is less than 1 nM. Also, the IC50 in the test with VCaP cells is no more than 0.1 nM.
As for `CC(=O)N1CCc2c(c(N3CCCc4cc(-c5cnn(C)c5)c(C(F)F)cc43)nn2C2CCN(C[C@H]3[C@H](C)CN(c4ccc(C(=O)N[C@H]5CC[C@H](Oc6ccc(C#N)c(Cl)c6C)CC5)nn4)C[C@@H]3C)CC2)C1` [Compound 287, 6-[4-[[4-[5-acetyl-3-[7-(difluoromethyl)-6-(1-methylpyrazol-4-yl)-3,4-dihydro-2H-quinolin-1-yl]-6,7-dihydro-4H-pyrazolo[4,3-c]pyridin-1-yl]-1-piperidyl]methyl]-3,5-dimethyl-1-piperidyl]-N-[4-(3-chloro-4-cyano-2-methyl-phenoxy)cyclohexyl]pyridazine-3-carboxamide], on AR / CBP ternary complex, the EC50 is less than 1 nM. The compound further registered an IC50 in the test on VCaP cells of no more than 0.1 nM.
Regarding `COC1(CN2CCC(n3nc(N4CCCc5cc(-c6cnn(C)c6)c(C(F)F)cc54)c4c3CCN(C(C)=O)C4)CC2)CCN(c2ccc(C(=O)N[C@H]3CC[C@H](Oc4ccc(C#N)c(Cl)c4)CC3)nn2)CC1` [Compound 177, 6-[4-[[4-[5-acetyl-3-[7-(difluoromethyl)-6-(1-methylpyrazol-4-yl)-3,4-dihydro-2H-quinolin-1-yl]-6,7-dihydro-4H-pyrazolo [4,3-c]pyridin-1-yl]-1-piperidyl]methyl]-4-methoxy-1-piperidyl]-N-[4-(3-chloro-4-cyano-phenoxy)cyclohexyl]pyridazine-3-carboxamide], in the test on VCaP cells, the IC50 was no more than 0.1 nM.
Compound `CC(=O)N1CCc2c(c(N3CCCc4cc(-c5cnn(C)c5)c(C(F)F)cc43)nn2[C@H]2CC[C@@H](N(C)C3CCN(c4ccc(C(=O)N[C@H]5CC[C@H](Oc6ccc(C#N)c(Cl)c6)CC5)nn4)CC3)CC2)C1` [Compound 189, 6-[4-[[4-[5-acetyl-3-[7-(difluoromethyl)-6-(1-methylpyrazol-4-yl)-3,4-dihydro-2H-quinolin-1-yl]-6,7-dihydro-4H-pyrazolo[4,3-c]pyridin-1-yl]cyclohexyl]-methyl-amino]-1-piperidyl]-N-[4-(3-chloro-4-cyano-phenoxy)cyclohexyl]pyridazine-3-carboxamide] gave an IC50 in the test with VCaP cells of no more than 0.1 nM.
The same measure, in the same setting: then `CC(=O)N1CCc2c(c(N3CCCc4cc(-c5cnn(C)c5)c(C(F)F)cc43)nn2C2CCN(C3CCC4(CC3)CN(c3ccc(C(=O)N[C@H]5CC[C@H](Oc6ccc(C#N)c(Cl)c6)CC5)nn3)C4)CC2)C1` [Compound 185, 6-[7-[4-[5-acetyl-3-[7-(difluoromethyl)-6-(1-methylpyrazol-4-yl)-3,4-dihydro-2H-quinolin-1-yl]-6,7-dihydro-4H-pyrazolo[4,3-c]pyridin-1-yl]-1-piperidyl]-2-azaspiro[3.5]nonan-2-yl]-N-[4-(3-chloro-4-cyano-phenoxy)cyclohexyl]pyridazine-3-carboxamide], with no more than 0.1 nM; and `CC(=O)N1CCc2c(c(-c3cccc4cc(-c5ccc(N6CCC7(CC6)CCN(c6ccc(C(=O)N[C@H]8CC[C@H](Oc9ccc(C#N)c(Cl)c9)CC8)nn6)CC7)nc5)ncc34)nn2C2CCOCC2)C1` [Compound 179, 6-[9-[5-[8-(5-acetyl-1-tetrahydropyran-4-yl-6,7-dihydro-4H-pyrazolo[4,3-c]pyridin-3-yl)-3-isoquinolyl]-2-pyridyl]-3,9-diazaspiro[5.5]undecan-3-yl]-N-[4-(3-chloro-4-cyano-phenoxy)cyclohexyl]pyridazine-3-carboxamide], with 0.1 to 1 nM.
Same read-out and setting: then `CC(=O)N1CCc2c(c(-c3cccc4cc(-c5cnn(CC6CCN(c7ccc(C(=O)N[C@H]8CC[C@H](Oc9ccc(C#N)c(Cl)c9)CC8)nn7)CC6)c5)ncc34)nn2C)C1` [Compound 7, 6-[4-[[4-[8-(5-acetyl-1-methyl-6,7-dihydro-4H-pyrazolo[4,3-c]pyridin-3-yl)-3-isoquinolyl]pyrazol-1-yl]methyl]-1-piperidyl]-N-[4-(3-chloro-4-cyano-phenoxy)cyclohexyl]pyridazine-3-carboxamide], with no more than 0.1 nM; and `CC(=O)N1CCc2c(c(N3CCCc4cc(-c5cnn(C)c5)c(C(F)F)cc43)nn2[C@H]2CC[C@H](N(C)C3CCN(c4ccc(C(=O)N[C@H]5CC[C@H](Oc6ccc(C#N)c(Cl)c6)CC5)nn4)CC3)CC2)C1` [Compound 187, 6-[4-[[4-[5-acetyl-3-[7-(difluoromethyl)-6-(1-methylpyrazol-4-yl)-3,4-dihydro-2H-quinolin-1-yl]-6,7-dihydro-4H-pyrazolo[4,3-c]pyridin-1-yl]cyclohexyl]-methyl-amino]-1-piperidyl]-N-[4-(3-chloro-4-cyano-phenoxy)cyclohexyl]pyridazine-3-carboxamide], with no more than 0.1 nM.
As for `CC(=O)N1CCc2c(c(N3CCCc4cc(-c5ccc(OC6CC7(CCN(c8ccc(C(=O)N[C@H]9CC[C@H](Oc%10ccc(C#N)c(Cl)c%10)CC9)nn8)CC7)C6)cc5)c(C(F)F)cc43)nn2C2CCOCC2)C1` [Compound 203, 6-[2-[4-[1-(5-acetyl-1-tetrahydropyran-4-yl-6,7-dihydro-4H-pyrazolo[4,3-c]pyridin-3-yl)-7-(difluoromethyl)-3,4-dihydro-2H-quinolin-6-yl]phenoxy]-7-azaspiro[3.5]nonan-7-yl]-N-[4-(3-chloro-4-cyano-phenoxy)cyclohexyl]pyridazine-3-carboxamide], the EC50 at AR / CBP ternary complex is less than 1 nM.
In the test with VCaP cells, `CC(=O)N1CCc2c(c(Nc3ccc(-c4cnn(C)c4)cc3F)nn2C2CCN(CCC3CCN(c4ncc(C(=O)N[C@H]5CC[C@H](Oc6ccc(C#N)c(Cl)c6)CC5)cn4)CC3)CC2)C1` [Compound 10, 2-[4-[2-[4-[5-acetyl-3-[2-fluoro-4-(1-methylpyrazol-4-yl)anilino]-6,7-dihydro-4H-pyrazolo[4,3-c]pyridin-1-yl]-1-piperidyl]ethyl]-1-piperidyl]-N-[4-(3-chloro-4-cyano-phenoxy)cyclohexyl]pyrimidine-5-carboxamide] returned an IC50 of 0.1 to 1 nM.
In the case of `CC(=O)N1CCc2c(c(N3CCCc4cc(-c5cnn(C)c5)c(C(F)F)cc43)nn2C2CCN(CC3(F)CCN(c4ccc(C(=O)N[C@H]5CC[C@H](Oc6ccc(C#N)c(Cl)c6)CC5)nn4)CC3)CC2)C1` [Compound 142, 6-[4-[[4-[5-acetyl-3-[7-(difluoromethyl)-6-(1-methylpyrazol-4-yl)-3,4-dihydro-2H-quinolin-1-yl]-6,7-dihydro-4H-pyrazolo[4,3-c]pyridin-1-yl]-1-piperidyl]methyl]-4-fluoro-1-piperidyl]-N-[4-(3-chloro-4-cyano-phenoxy)cyclohexyl]pyridazine-3-carboxamide], at AR / CBP ternary complex, the EC50 was less than 1 nM.
The compound `CC(=O)N1CCc2c(c(N3CCCc4cc(-c5ccc(OC6CC7(CCN(c8ccc(C(=O)N[C@H]9CC[C@H](Oc%10ccc(C#N)c(Cl)c%10)CC9)nn8)CC7)C6)nc5)c(C(F)F)cc43)nn2C2CCOCC2)C1` [Compound 202, 6-[2-[[5-[1-(5-acetyl-1-tetrahydropyran-4-yl-6,7-dihydro-4H-pyrazolo[4,3-c]pyridin-3-yl)-7-(difluoromethyl)-3,4-dihydro-2H-quinolin-6-yl]-2-pyridyl]oxy]-7-azaspiro[3.5]nonan-7-yl]-N-[4-(3-chloro-4-cyano-phenoxy)cyclohexyl]pyridazine-3-carboxamide] came in with an IC50 in the test on VCaP cells of 0.1 to 1 nM.

These data come from patent US20250136578A1 (Kolm Therapeutics Inc., priority 2023, published 2025).
